We go through 1 compound from patent publication US8822486B2, “Spiropiperidine compounds” (Eli Lilly and Company, priority 2009, dated 2014).

In assay [1] the target is T1, PPARα (Homo sapiens, UniProt Q07869).
T1 construct: made in house; host or cells: HEK293 (cell lysates)
T1 sequence (Q07869 1-468): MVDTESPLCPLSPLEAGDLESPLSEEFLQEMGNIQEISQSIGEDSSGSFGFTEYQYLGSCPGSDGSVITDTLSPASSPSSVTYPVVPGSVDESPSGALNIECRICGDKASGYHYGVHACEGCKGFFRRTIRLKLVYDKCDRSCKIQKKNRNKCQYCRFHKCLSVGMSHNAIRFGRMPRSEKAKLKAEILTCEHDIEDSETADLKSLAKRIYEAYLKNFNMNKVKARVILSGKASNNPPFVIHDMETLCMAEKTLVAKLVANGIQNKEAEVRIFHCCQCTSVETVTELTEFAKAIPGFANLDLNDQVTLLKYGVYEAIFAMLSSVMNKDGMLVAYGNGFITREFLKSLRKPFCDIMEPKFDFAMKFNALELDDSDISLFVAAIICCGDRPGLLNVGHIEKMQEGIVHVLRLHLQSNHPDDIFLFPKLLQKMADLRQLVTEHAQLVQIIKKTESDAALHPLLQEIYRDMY
T1 sequence (P19793 1-462 partner): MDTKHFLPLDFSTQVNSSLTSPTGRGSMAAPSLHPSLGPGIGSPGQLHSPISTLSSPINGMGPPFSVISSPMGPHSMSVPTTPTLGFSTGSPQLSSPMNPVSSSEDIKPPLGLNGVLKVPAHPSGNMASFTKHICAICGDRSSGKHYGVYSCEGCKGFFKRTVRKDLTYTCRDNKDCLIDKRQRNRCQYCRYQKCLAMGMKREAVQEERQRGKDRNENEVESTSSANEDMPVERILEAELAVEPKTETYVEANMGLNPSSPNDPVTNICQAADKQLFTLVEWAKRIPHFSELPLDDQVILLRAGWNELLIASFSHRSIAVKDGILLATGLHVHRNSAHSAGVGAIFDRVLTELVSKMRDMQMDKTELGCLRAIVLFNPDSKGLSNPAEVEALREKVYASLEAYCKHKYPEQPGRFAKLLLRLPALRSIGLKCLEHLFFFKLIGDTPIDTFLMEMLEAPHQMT
Nature of the assay: PPARα binding assay (SPA). Conditions: concentrations up to 10 μM. The protocol: Because GPR40 is known to be activated by ligands to PPARγ exemplified compounds are examined in PPARα, PPARδ, and PPARγ binding and functional assays to determine the selectivity of exemplified compounds for GPR40. Compounds exemplified herein are tested essentially as described below for PPAR binding and generally have binding values greater than 1000 nM with 10 μM concentrations of test compound and are thus considered negative for PPAR activity.
Binding affinities of compounds for the PPAR α, δ, and γ receptors are assessed using Scintillation Proximity Assay (SPA) technology. Biotinylated oligonucleotide Direct Repeat 2 (DR2) is used for binding the receptors to Yttrium silicate streptavidin-coated SPA beads. […] Non-specific binding is determined in the presence of 10,000 nM of the unlabeled PPAR α/δ dual agonist reference compound for the alpha and delta receptor assays and the PPARγ agonist reference compound for the gamma receptor assay. The binding reaction (100 μl per well in a 96 well [Costar 3632] plate) is incubated for 10 h and counted disintegration per minutes (dpm) on a Wallac Microbeta. Receptor binding affinity (IC50) for the compounds is determined by fitting an 11 point concentration-response curve with a 4-paramater logistic equation. K, is determined from the IC50 using the Cheng-Prussoff equation and Kd determined by saturation binding. […]

For assay [2], the target named is T2, human GPR40 (Homo sapiens, UniProt O14842).
T2 construct: expressed in transfected cells; host or cells: HEK293
Nature of the assay: Calcium Flux Primary Assay. In kind it is cell-based. The protocol:
Calcium Flux Primary Assay
HEK293 cells over expressing the human GPR40 cDNA maintained in Dulbecco's modified Eagle's medium with F12 medium in 3:1 ratio supplemented with 10% FBS and 800 μg/ml geneticin at 37° C. and 5% CO2 are employed for the study. Agonist assays are performed using a Calcium 4 Dye assay kit (Molecular Devices) in the presence (0.1%) or absence of fatty acid free BSA in the assay buffer (1×HBSS (Hank's Balanced Salt Solution) & 20 mM HEPES (4-(2-hydroxyethyl)-1-piperazineethanesulfonic acid). Receptor activation is measured as an increase in intracellular calcium using the Fluorometric Imaging Plate Reader (FLIPR). Maximum change in fluorescence over the base line is used to determine agonist response. EC50 (effective concentration at half the maximal response) value of the compound is calculated using Excel Fit software (version 4; IDBS) by plotting concentration vs relative fluorescence units (RFUs).
Background: A change in cytosolic calcium serves as a functional read-out for many receptors and channels.

T2 sequence (O14842 whole entry): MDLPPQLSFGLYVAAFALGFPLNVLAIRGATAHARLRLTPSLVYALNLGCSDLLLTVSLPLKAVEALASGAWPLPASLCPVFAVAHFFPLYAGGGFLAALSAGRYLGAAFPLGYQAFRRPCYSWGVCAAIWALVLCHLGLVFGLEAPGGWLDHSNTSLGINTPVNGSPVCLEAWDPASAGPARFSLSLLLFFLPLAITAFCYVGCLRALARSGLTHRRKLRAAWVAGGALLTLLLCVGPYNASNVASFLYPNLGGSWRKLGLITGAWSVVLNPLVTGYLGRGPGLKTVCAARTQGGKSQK

In the case of `CC#C[C@@H](CC(=O)O)c1ccc(OCc2ccc(CN3CCC4(C=Cc5ccccc54)CC3)s2)cc1` [Example 1, (3S)-3-[4-[[5-(Spiro[indene-1,4′-piperidine]-1′-ylmethyl)-2-thienyl]methoxy]phenyl]hex-4-ynoic acid], in assay [1], the PPARα binding result is “no binding is detected”. Besides, the EC50 in assay [2] (HEK293 cells over expressing human GPR40, intracellular calcium, FLIPR) was found to be 0.114 µM. For the same compound, in assay [2] (maximal response compared to the natural ligand, linoleic acid), the Percent efficacy is 91+/−9%.

In general, EC50 refers to the concentration giving half of the maximal effect.
